Data taken from PMC6514962, “The Impact of O-Glycosylation on Cyanidin Interaction with RBCs and HMEC-1 Cells—Structure–Activity Relationships” (International Journal of Molecular Sciences, 2019).

Tests used:
HMEC-1 cells [1] = experiment: AAPH-stimulated intracellular ROS generation, H2DCF-DA assay; type: cell-based, human; conditions: for inhibitory activity on AAPH-induced intracellular ROS: HMEC-1, throughout the used range of concentrations (50-100 µM); for intracellular ROS level in comparison with control AAPH-oxidized cells: HMEC-1 pretreated 24 h with 50 to 75 µM, then AAPH 24 h
Description: (§1) The impact of investigated compounds on the level of intracellular reactive oxygen species and their ability to inhibit AAPH-stimulated intracellular ROS generation were assessed using a H2DCF-DA probe. Non-fluorescent H2DCF-DA is hydrolyzed intracellularly to form 2′,7′-dichlorodihydrofluorescein, which is oxidized by reactive oxygen species to the fluorescent 2′,7′-dichlorofluorescein. ROS production was estimated in HMEC-1 cells seeded on 96-well plates (5 × 10^3/well) and cultured for 12 to 24 h. After that time, the compounds were added at appropriate concentrations. The incubation was continued for another 24 h and 48 h at 37 °C under 5% CO2. In the case of AAPH-simulated ROS generation, the cells were incubated with extracts for 24 h. After incubation, the AAPH dissolved in culture medium was added to each well at the final concentration of 7.5 mM and incubated for the next 24 h. After that time, the cell monolayers were rinsed with HBSS containing 1% albumin and 5 µM of the fluorescence probe, 2′,7′-dichlorodihydrofluorescein diacetate (H2DCF-DA), was added. Immediately and after 0.5 h, 1 h, and 2 h incubation in the dark in standard conditions, the fluorescence was measured at λex = 485 nm and λem = 538 nm.
(§2) In the next step, DNA content was determined. For this purpose, after measurements, the cells were frozen at −70 °C. Next, the cells were thawed and re-frozen after the addition of […] of distilled water/well. Then, the cells were thawed again. After that, 5 µM of RNase was added to each well and incubated for 30 min in the dark at 37 °C. Next, 50 µL of 2.5 µM propidium iodide was added to the cells and incubated for 5 min in the same conditions. The fluorescence intensity of PI was measured at λex = 355 nm and λem = 620 nm. The rate of ROS generation was calculated according to the formula: (1) Rate of ROS=IFe1/IFe2/IFc1/IFc2⋅100% where IFe1 and IFe2 are fluorescence intensities of H2DCF-DA and PI in compound-modified or compound-modified and AAPH-oxidized cells, and IFc1 and IFc2 are fluorescence intensities of H2DCF-DA and PI in control or AAPH-oxidized control cells.

[2] = viability of HMEC-1 cells, XTT and Hoechst 33342 assays; type: cell-based, human; conditions: human, HMEC-1 cells, HMEC-1, 100 µM, % of control, read-out: cell viability (XTT and Hoechst assay)
Description: (§3) The effect of compounds on the viability of HMEC-1 cells was assessed by XTT (2,3-bis-(2-methoxy-4-nitro-5-sulfophenyl)-2H-tetrazolium-5-carboxanilide) and Hoechst 33342 assays. Briefly, 5 × 10^3 cells in 100 µL of the appropriate growth medium were plated in 96-well flat bottom clear microplates and cultured for 24 h at 37 °C in a humidified 5% CO2 incubator to ensure their logarithmic growth. […] A corresponding volume of 0.5% ethanol was added to the control wells. In parallel experiments, some of the cells were additionally incubated with doxorubicin in a concentration of 0.5 µM (a cytotoxic compound usually used as an anticancer drug). After incubation, the medium in the wells was aspirated, the cell monolayers were rinsed twice with pre-warmed (37 °C) PBS, and the cells were allowed to grow for an additional 48 h. After incubation, during the XTT assay, medium was removed by aspiration and 50 µL of XTT/PMS solution (10 µL of 10 mM PMS + 4 mL of 4 mg/mL XTT solution) was added to cells. Cells were incubated in the dark for 2 h (37 °C, 5% CO2). After incubation, the absorbance of the samples was read at 450 nm and 690 nm using an Epoch Microplate Spectrophotometer, BioTek Instruments, Inc., Winooski, Vermont, USA. The fraction of surviving treated cells was presented as a percentage of viable control (untreated) cells taken as 100%. In the Hoechst test, after incubation of cells with cyanidin and its glycosides, the medium was removed and the cells were washed twice with HBSS buffer containing 1% bovine serum albumin and frozen at −70 °C. Next, the cells were thawed at room temperature (RT) and re-frozen after the addition of […] of distilled water. After thawing the plates at room temperature, 100 µL of HVAB solution (0.5% Hoechst in TNE solution containing 2 M NaCl, 1 mM EDTA, 10 mM Tris-HCl, pH 7.4) were added to each well. Next, cells were incubated for 15 min in the dark at 37 °C, mixed, and the fluorescence intensity of the probe was measured at 355 and 460 nm for excitation and emission, respectively (Fluoroskan Ascent FL, Thermo Scientific, Waltham, MA, USA). Cell viability was calculated as the ratio of the fluorescence intensity of the Hoechst 33342 probe for compound-modified to -unmodified cells and expressed as a percentage.

HMEC-1 cells [3] = experiment: as above; type: cell-based, human; conditions: 48 h; for viability of endothelial cells compared with the control: HMEC-1, 100 µM, p < 0.01, both methods; for cytotoxicity: HMEC-1, 10-100 µM
Description: as §3

HMEC-1 cells [4] = experiment: intracellular ROS generation in non-oxidized cells, H2DCF-DA assay; type: cell-based, human
Description: as §1, §2

erythrocytes (RBCs) [5] = experiment: protection of erythrocytes against AAPH-induced hemolysis; type: cell-based, pig; conditions: for level of RBCs' protection relative to CR and CDG: compared with CR and CDG
Description: Upon removal from plasma, the erythrocytes (RBCs) were washed four times in phosphate solution (pH 7.4) and then incubated in the same solution, but containing appropriate amounts of the compounds studied. The modification was conducted at 37 °C for 1 h, each 1 mL sample containing an RBC suspension of 1.2% hematocrit and 1 to 100 µM of compounds, stirred continuously. After the modification, 2 mL of phosphate buffer were added and samples were centrifuged, and the supernatant assayed for hemoglobin content using a spectrophotometer (Specord 40, Analytik Jena) at the 540 nm wavelength. To test the effect of compounds on hemolysis inducted by AAPH, RBCs were pre-incubated with varying concentrations of compounds at 37 °C for 1 h. Hemolysis of RBCs was carried out by mixing 3% suspension of RBCs (unmodified or modified by 2 to 20 µM of the compounds) in phosphate buffer with AAPH solution (final concentration 120 mM). This reaction mixture was incubated for 3 h at 37 °C. After incubation, samples were centrifuged for 15 min (2000× g, RT). The extent of hemolysis was determined spectrophotometrically by measuring the absorbance of the supernatant at 540 nm. Hemoglobin concentration in the supernatant, expressed as a percentage of the hemoglobin concentration in the supernatant of totally hemolyzed cells, was assumed as the measure of the extent of hemolysis.

erythrocytes (RBCs) [6] = experiment: SEM assay of the shapes of erythrocytes; type: cell-based, pig; conditions: 100 µM, 1 h
Description: The effect of compounds on the shape of erythrocytes was investigated using a scanning electron microscope (SEM). […] Hematocrit concentration of the erythrocytes in the modification solution was 2%, the modification lasting 1 h at 37 °C. After modification, the erythrocytes where fixed for 48 h in a 2.5% solution of glutaraldehyde. After that, the preparations were washed in phosphate buffer for 20 min, and then the material was dehydrated in a rising series of acetone concentrations (30%, 50%, 60%, 70%, 80%, 90%, and 100%). Each sample was washed for 15 min in an appropriate concentration, the material remaining in pure acetone for 30 min. Next, the erythrocytes were dried for 12 h at room temperature. Erythrocytes thus prepared were deposited on object stages and subjected to x-ray microanalysis by means of an x-ray analyzer, Bruker AXS Quantax, collaborating with the ESPRIT ver. 1.8.2. software. Next, the samples were coated with gold using a Scancoat 6 (Edwards, London) sprinkler. The material ultrastructure was analyzed using a scanning microscope (EVO LS15 ZEISS) with an SE1 detector, under high vacuum and accelerating voltage, acceleration voltage (EHT) = 20 kV. Individual forms of erythrocyte cells were ascribed morphological indices according to the Bessis scale, which for stomatocytes assume negative values from −1 to −4, and for echinocytes from 1 to 4.

[7] = tested on: MCF-7, HuH-7, HepG2, Caco-2, and HUVEC; parameters: method as in doi:10.3136/fstr.17.515; conditions: cited from earlier work
renal cell carcinoma = tested on: renal cell carcinoma; parameters: method as in PMID 29742507; conditions: cited from earlier work
[8] = tested on: MCF-7 breast cancer cells; conditions: cited from earlier work
RAW 264.7 cells = tested on: RAW 264.7 cells; parameters: method as in doi:10.1007/s10068-014-0279-x; conditions: 100 to 200 µg/mL; cited from earlier work
[9] = tested on: HER2 (breast cancer), GBM (glioblastoma), and human monocytic leukemia; parameters: method as in PMID 15080622, PMID 24312561, PMID 28867321; conditions: cancer cells, interrupting the G2-M phase; cited from earlier work
[10] = parameters: method as in doi:10.1007/s10068-014-0279-x; conditions: cited from earlier work
macrophages = tested on: macrophages; parameters: method as in doi:10.1007/s10068-014-0279-x; conditions: cited from earlier work
HL-60 cells = tested on: HL-60 cells; parameters: method as in PMID 17360708; conditions: by the accumulation of peroxides; cited from earlier work
[11] = tested on: human peripheral blood mononuclear cells; parameters: method as in PMID 17360708; conditions: cited from earlier work

Row | Compound | intracellular ROS level compared with control cells (HMEC-1 cells [4]; HMEC-1, 24 h, 50-100 µM) | intracellular ROS level compared with control cells (HMEC-1 cells [4]; HMEC-1, 48 h, 50-100 µM) | inhibitory activity on AAPH-induced intracellular ROS (HMEC-1 cells [1]) | morphological index of induced echinocytes (Bessis scale) (erythrocytes (RBCs) [6]) | cytotoxicity (HMEC-1 cells [3]) | intracellular ROS level in comparison with control AAPH-oxidized cells (HMEC-1 cells [1]) | also measured
1 | CC(C)(N=NC(C)(C)C(=N)N)C(=N)N.Cl.Cl [AAPH, 2,2′-azobis(2-amidinopropane) dihydrochloride, reference compound] | – | – | – | – | – | – | increase in the ROS level (HMEC-1 cells [1]; HMEC-1, 24 h incubation with AAPH (7.5 mM), 37 °C): about 60%
2 | Oc1cc(O)c2cc(O)c(-c3ccc(O)c(O)c3)[o+]c2c1 [C, Cyanidin] | significant decrease | decreased | does not cause any inhibitory activity | +4 | – | – | viability at 48 h, 100 µM [2]: 65 to 80%; viability of endothelial cells compared with the control (HMEC-1 cells [3]): decreased the viability; antioxidant activity compared with CG, CA, and CGA (erythrocytes (RBCs) [5]): did not observe any significant differences; intracellular ROS levels [7]: decreased; percentage of apoptotic cells (renal cell carcinoma; 48 h at 0, 25, 50, and 100 μM): gradually increased; cell cycle arrest (renal cell carcinoma; independently of the concentration): induced cell cycle arrest; cell proliferation and apoptosis [8]: inhibition of cell proliferation and increased apoptosis
3 | OCC1OC(Oc2cc3c(O)cc(O)cc3[o+]c2-c2ccc(O)c(O)c2)C(O)C(O)C1O (stereo not drawn) [CGA, cyanidin-3-O-galactoside] | – | decreased | – | – | – | – | –
4 | OCC1OC(Oc2cc3c(O)cc(O)cc3[o+]c2-c2ccc(O)c(O)c2)C(O)C(O)C1O (stereo not drawn) [CG, cyanidin-3-O-glucoside] | significant decrease | – | – | – | no cytotoxicity | significant decrease | intracellular ROS level compared with control cells (HMEC-1 cells [4]; HMEC-1, 48 h, 100 µM): no significant difference; level of RBCs' protection relative to CR and CDG (erythrocytes (RBCs) [5]): better protection; cell viability compared with control cells (RAW 264.7 cells): significantly decreased; intracellular ROS levels [7]: did not; cytotoxic effect (apoptosis) [9]: inducing apoptosis; nitrite scavenging activity compared with CR [10]: higher; protective effect against H2O2-induced cytotoxicity compared with CR (macrophages): stronger protective effect
5 | OCC1OC(Oc2cc3c(OC4OC(CO)C(O)C(O)C4O)cc(O)cc3[o+]c2-c2ccc(O)c(O)c2)C(O)C(O)C1O (stereo not drawn) [CDG, cyanidin-3-5-O-diglucoside] | significant decrease | decreased | strong inhibitory action | +1 | no cytotoxicity | significant decrease | protective effect against AAPH-induced oxidative stress (HMEC-1 cells [1]; HMEC-1, 100 µM): protective effect
6 | CC1OC(OCC2OC(Oc3cc4c(O)cc(O)cc4[o+]c3-c3ccc(O)c(O)c3)C(O)C(O)C2O)C(O)C(O)C1O (stereo not drawn) [CR, cyanidin-3-O-rutinoside] | did not differ | no significant difference | does not cause any inhibitory activity | +1 | no cytotoxicity | – | cell viability compared with control cells (RAW 264.7 cells): significantly decreased; apoptosis (HL-60 cells): induce apoptosis; toxicity [11]: relatively low toxicity
7 | Oc1cc(O)c2cc(OC3OCC(O)C(O)C3O)c(-c3ccc(O)c(O)c3)[o+]c2c1 (stereo not drawn) [CA, cyanidin-3-O-arabinoside] | significant decrease | decreased | – | +2 | – | significant decrease | viability at 48 h, 100 µM [2]: 60 to 85%; viability of endothelial cells compared with the control (HMEC-1 cells [3]): decreased the viability; level of RBCs' protection relative to CR and CDG (erythrocytes (RBCs) [5]): better protection
